From patent US9861606B2, “Therapeutic for treating inflammatory lung disorders” (University College Cardiff Consultants Limited, priority 2012, dated 2018)
Several values for one entry are separate records, joined by “and”; a condition that tells them apart may be missing. Equal values may be shown once.

Key:
BalbC mice = experiment: Polycation-induced bronchial hyper-reactivity (Penh, plethysmography) in methacholine-challenged conscious mice; type: in vivo, mouse; details: nebulised 3 μM; poly-L-arginine 3 μM; methacholine challenge
Experimental: FIG. 5. […] prevent polycation-evoked BHR in methacholine-challenged mice. […] After the treatment, animals were placed in plethysmography chambers (Buxco, USA), allowed to settle for 10 minutes, and then they were challenged with methacholine (MCh, 0.1-10 mg/ml). Responses to methacholine obtained from the animals that have not received any treatments are shown in black symbols. From our previous estimates, 1-5% of the nebulised drug reaches the lung epithelium. […] FIG. 12. […] Male BalbC mice ( 25 g) were purchased from Harlan 1 week before the experimental protocols were performed. […] On the day of the experiment, the body weight of each mouse was recorded and mice were allowed to acclimatise to the chamber for at least 10 min before recordings were made. Then, respiratory activity was recorded for 5 min, to establish baseline value for Penh. […] Data were recorded for 3 minutes after each aerosol administration. The Penh values at each MCh concentration were averaged and expressed as a proportion of baseline Penh (Penh before treatment). […] The Penh values at each MCh concentration were averaged and expressed as a proportion of that day's baseline Penh (Penh after treatment). […] Effect of Polycations and of the Calcilytic NPS89636 on Bronchial Hyper-Reactivity in Unrestrained, Conscious Mice In Vivo Baseline airway hyper-responsiveness was measured by plethysmography. […]

[1] = Plasma ionised Ca2+ in guinea pigs after nebulised calcilytic treatment; type: in vivo, guinea pig
Source text: Table 2. […] Accordingly, the treatment is not detrimental in mammals.

[2] = tested on: Dunkin-Hartley guinea pigs; experiment: Inflammatory cell infiltration in BALF of LPS-treated guinea pig model of COPD; type: in vivo; details: nebulised 3 micromolar, 30 min before LPS
Experimental: FIG. 15. The calcilytic NPS89636 reduces inflammatory cell infiltration detected in the bronchioalveolar lavage fluid (BALF) from guinea pigs with LPS-induced COPD. Male Dunkin-Hartley guinea pigs (500-550 g) were exposed to 30 micrograms/ml of nebulized lipopolysaccharide (LPS) in saline for 1 hour on alternate days for nine exposures. Animals received nebulised 3 micromolar NPS89636 (or 0.3% DMSO vehicle) for 9 days starting after exposure 5 for 30 min, 30 min before LPS exposure every other day. Animals were killed 24 hours after the ninth exposure (1.5 mL of Euthatal IP) and BALF was collected and cells were counted the same day as described in FIG. 14. Data are presented as mean±S.E.M. Significant differences between vehicle and calcilytic are indicated, p<0.05, n=6. […] For the total cell counts 100 microliters of the concentrated BALF from OVA-sensitised mice or 100 microliters of the diluted BALF from guinea pigs were applied to the Cytospin 3 Shandon cell smearing system (using glass slides from Thermo Scientific (BS7011/2; 0.8-1 mm, 76×26 mm) and filter paper from Thermo Scientific (5991022; Shandon filter cards) at 1000 rt/min for 7 minutes. The slides then were immersed into 1.5% […] stain in methanol for 6 min, then briefly washed in water twice. The slides were allowed to dry overnight, and the cells were counted using 100× oil immersion objective.

## CCc1ccc(CC(C)(C)NCC(O)COc2cc(-c3ccc(C(=O)O)cc3)ccc2C#N)c(F)c1.Cl (stereo in doubt) [NPS89636, (S)-4′-cyano-3′-[3-[2-(4-ethyl-2-fluorophenyl)-1,1-dimethylethylamino]-2-hydroxy-propoxy]-biphenyl-4-carboxylic acid hydrochloride]
BalbC mice
  Effect on poly-L-arginine-induced increase in airway reactivity (Penh): completely prevented
[1]; 24 hours after nebulised calcilytic, single animals, hydrochloride
  Plasma ionised Ca++, Treatment (24 hours), individual animal: 1.55 mM/L (2×) and 1.54 mM/L and 1.77 mM/L and 1.58 mM/L and 1.2 mM/L
[1]; 24 hours, average of 6
  Plasma ionised Ca++, Treatment (24 hours), Average: 1.53 mM/L
[2]
  Effect on inflammatory cell infiltration (BALF), LPS-treated guinea pig: a reduction in the inflammatory cell infiltration, especially of lymphocytes and neutrophils
